Results taken from patent US6423823B1, “Organic chemical compounds and method for producing the same” (Bayer Aktiengesellschaft, priority 1997, dated 2002).
Numbered stars: 1 amine (or outer) side, 2 acyl side, 3 side chain; on linkers, the order of the positions; unused ones are H or OH. Square brackets hold non-standard residues; d marks the D form. Peptide text beside a SMILES is read from it. ξ: configuration not given here. X1 = CC(OC(=O)CC(C)(C)O)C(C)C(C(=O)[*:2])N(C)[*:1]; X4 = CC(=O)OC(C)C(C)C(C(=O)[*:2])N(C)[*:1]; X3 = O=C(C1CC2(O)c3ccccc3NC2N1[*:1])[*:2]; ξNMeVal(3-OH) = CNC(C(=O)O)C(C)(C)O; NMeξGly(OAc) = CNC(OC(C)=O)C(=O)O; NMeI = CC[CH](C)[CH](NC)C(=O)O; X2 = CN(C(O)C(=O)[*:2])[*:1]; NMeV = CN[CH](C(=O)O)C(C)C; Sar = CNCC(=O)O

Assays:
Heterakis spumosa = assay: In vivo mouse model, intestinal nematode; settings: dosage of 50 mg/kg
Experimental: In the in vivo mouse model, omphalotin B has full activity against the intestinal nematode Heterakis spumosa at a dosage of 50 mg/kg. The test is described in the above publication.

Trichinella spiralis = assay: In vitro test against Trichinella spiralis; settings: concentration of 1 μg/ml
Experimental: The test was carried out according to the test description in the publication Plant et al. (1996) Pesticide Science 48: 351-358.

Meloidogyne incognita [1] = assay: Effect on nematodes in the greenhouse (test crop: cucumbers); assay type: in vivo; settings: for Efficacy in %: cucumber plants, after 14 days, 100% = no galls formed; for Number of galls/plant: poured onto cucumber plants, evaluation after 14 days
Experimental: (§1) Test nematode: Meloidogyne incognita
Test method: In each case two cucumber plants (variety Bella F1) are grown in a soil-leaf mixture in pots of the dimensions 7×7×6 cm. The test substances are, in the appropriate concentrations, dissolved in methanol and then diluted in water and then poured onto the cucumber plants, which are about 14 days old. Per drip, 10 ml of solution are poured on. 3 hours after the treatment, about 500 nematodes are pipetted as a suspension onto each pot. The pots are incubated in a greenhouse at a day temperature of about 26° C. and a night temperature of 20° C. After 14 days, evaluation is carried out by washing out the roots and determining the galls formed per plant.
The efficacy of the test substance is 100% if no galls have been formed, and it is 0% if the same number of galls have been formed as in the control.

Meloidogyne incognita [2] = assay: Nematicidal activity on phytopathogenic nematodes in 24-well tissue culture plates; settings: lethal dose for 90% of the nematode population, second larval stage, after 16 hours
Experimental: as §1
Test method: The test substances are dissolved in methanol and pipetted into the wells of tissue culture plates (24-well tray). The solvent is evaporated, and 400 μl of nematode suspension are then added to each well of the tissue culture plate. The number of nematodes is 100 larvae of the second larval stage/400 μl . To promote the solubility of the samples in aqueous medium, the plate is shaken at 100 rpm for 15 minutes, and a first microscopic control is then carried out. After 16 hours, the percentage of dead larvae is determined and stated as LD90 (lethal dose for 90% of the nematode population).

Spodoptera frugiperda = assay: Insecticidal maize leaf test; assay type: in vivo; settings: lethal dose for 50% of larvae, third larval stage, after 72 hours
Experimental: Test Insect: Spodoptera frugiperda
Test method: A rectangle (1.5×2 cm) cut from maize leaves (8-10 day-old plant, variety Golda) is placed in a Petri dish (diameter 5.5 cm, Greiner). The test substance, as a methanolic solution, is applied to the maize leaf and, after the solvent has evaporated, a filter disc (diameter 13 mm, Schleicher und Schüll) saturated with water and a larva of the third larval stage are added. The larva is placed next to the piece of leaf. The experiment is incubated at 24° C. After 48 hours, untreated maize (1.5×2 cm) is added. The feed behaviour and the state of the larvae are evaluated after 24, 48 and 72 hours. Per test concentration, 4 experiments and 3 repetitions are carried out. The insecticidal effect is stated as LD50 (lethal dose for 50% of larvae) after 72 hours.

Phaedon cochleariae = assay: Insecticidal leaf disc test (savoy cabbage); assay type: in vivo; settings: lethal dose for 100% of the larvae tested, third larval stage, after 96 hours
Experimental: Test insect: Phaedon cochleariae
(§2) Test method: Using a cork borer, 2 discs having a diameter of 10 mm are punched out of savoy cabbage leaves and placed in a Petri dish (diameter 5.5 cm, Greiner). The test substance is pipetted onto the leaf discs and, after the solvent has evaporated, a filter disc (diameter 13 mm, Schleicher und Schull) saturated in water and 2 freshly hatched larvae of the third larval stage are added. The larvae are placed next to the leaf discs. The experiment is incubated at 24° C. After 48 hours, an untreated savoy cabbage disc (10 mm Ø) is added. The feed behaviour and the state of the larvae are evaluated after 24, 48, 72 and 96 hours. Per test concentration, 2 experiments and 3 repetitions are carried out. The insecticidal effect is stated as LD100 (lethal dose for 100% of the larvae tested) after 96 hours.

Plutella xylostella = assay: Insecticidal leaf disc test (savoy cabbage); assay type: in vivo; settings: lethal dose for 100% of the larvae tested, third larval stage, after 72 hours
Experimental: Test insect: Plutella xylostella
as §2, with “Schüll)” for “Schull)”, “48 and” for “48,”, “72” for “72 and 96”, “72” for “96”

CCC(C)C1NC(=O)C(C(C)C)N(C)C(=O)C2CC3(O)c4ccccc4NC3N2C(=O)CN(C)C(=O)C(C(C)CC)N(C)C(=O)C(C(C)C)NC(=O)C(O)N(C)C(=O)C(C(C)C(C)OC(=O)CC(C)(C)O)N(C)C(=O)C(C(C)(C)O)N(C)C(=O)CN(C)C(=O)C(C(C)C)N(C)C(=O)C(C(C)C)N(C)C1=O (centres unmarked) [Omphalotin B] (cyclo([Sar][ξNMeVal(3-OH)][X1][X2]V[NMeI][Sar][X3][NMeV]I[NMeV][NMeV]); configuration not given here)
Activity against the intestinal nematode Heterakis spumosa (Heterakis spumosa): full activity
Effect against Trichinella spiralis in vitro (Trichinella spiralis): full effect
Efficacy in % (Meloidogyne incognita [1]; 2 ppm): 99%
Number of galls/plant (Meloidogyne incognita [1]; 2 ppm): 1
Efficacy in % (Meloidogyne incognita [1]; 5 ppm): 100%
Number of galls/plant (Meloidogyne incognita [1]; 5 ppm): 0
Nematicidal activity against Meloidogyne incognita LD90 (Meloidogyne incognita [2]): 2.5 µg/mL

CCC(C)C1NC(=O)C(C(C)C)N(C)C(=O)C2CC3(O)c4ccccc4NC3N2C(=O)CN(C)C(=O)C(C(C)CC)N(C)C(=O)C(C(C)C)NC(=O)C(OC(C)=O)N(C)C(=O)C(C(C)C(C)OC(=O)CC(C)(C)O)N(C)C(=O)C(C(C)(C)O)N(C)C(=O)CN(C)C(=O)C(C(C)C)N(C)C(=O)C(C(C)C)N(C)C1=O (centres unmarked) [Omphalotin C] (cyclo([Sar][ξNMeVal(3-OH)][X1][NMeξGly(OAc)]V[NMeI][Sar][X3][NMeV]I[NMeV][NMeV]); configuration not given here)
Efficacy in % (Meloidogyne incognita [1]; 2 ppm): 99%
Number of galls/plant (Meloidogyne incognita [1]; 2 ppm): 1
Efficacy in % (Meloidogyne incognita [1]; 5 ppm): 100%
Number of galls/plant (Meloidogyne incognita [1]; 5 ppm): 0
Insecticidal activity against Spodoptera frugiperda LD50 (Spodoptera frugiperda): 100 μg/maize leaf
Nematicidal activity against Meloidogyne incognita LD90 (Meloidogyne incognita [2]): 1 µg/mL

CCC(C)C1NC(=O)C(C(C)C)N(C)C(=O)C2CC3(O)c4ccccc4NC3N2C(=O)CN(C)C(=O)C(C(C)CC)N(C)C(=O)C(C(C)C)NC(=O)C(OC(C)=O)N(C)C(=O)C(C(C)C(C)OC(C)=O)N(C)C(=O)C(C(C)(C)O)N(C)C(=O)CN(C)C(=O)C(C(C)C)N(C)C(=O)C(C(C)C)N(C)C1=O (centres unmarked) [Omphalotin D] (cyclo([Sar][ξNMeVal(3-OH)][X4][NMeξGly(OAc)]V[NMeI][Sar][X3][NMeV]I[NMeV][NMeV]); configuration not given here)
Insecticidal activity against Phaedon cochleariae LD100 (Phaedon cochleariae): 100 μg/leaf disc
Insecticidal activity against Plutella xylostella LD100 (Plutella xylostella): 100 μg/leaf disc
Insecticidal activity against Spodoptera frugiperda LD50 (Spodoptera frugiperda): 80 μg/maize leaf
Nematicidal activity against Meloidogyne incognita LD90 (Meloidogyne incognita [2]): 4 µg/mL
